The values that follow come from US20120193574A1, “Method Of Controlling Crystallization” (University of Durham, priority 2009, published 2012).

“Also recorded” adds a separate entry of the source.

Series [1] is described as follows: Crystallisation in microemulsions under confinement; polymorph of the crystals by FTIR, TEM electron diffraction or Raman. The format is physicochemical. The procedure: Nanocrystals within the microemulsions were analysed by placing drops of the microemulsion onto TEM holey carbon grids and placing in a TEM. Nanocrystal images were taken and selected area electron diffraction patterns from the nanocrystals were captured, from which their polymorphic form could be determined.
Crystals/crystal aggregates were typically extracted via filtration. X-ray diffraction and/or FTIR and/or Raman microscopy techniques were used to determine the polymorph(s) of the extracted crystals/crystal aggregates.
A glycine microemulsion was prepared at ambient temperature containing 4.2 g heptane, 2.8 g of a 1:1 mass ratio of Span 80 and Brij 30, and 0.25 g of glycine solution containing 4% by mass of glycine in water. The microemulsion was shaken by hand to ensure homogeneous mixing. To this was added a microemulsion containing 1.8 g heptane, 2.8 g of a 1:1 mass ratio of Span 80 and Brij 30, 1 g of methanol and 0.25 g of water, with subsequent shaking to ensure homogeneous mixing. The resulting supersaturation ratio (c/csat) was 2.3. The resultant microemulsion was left to stand for 3 weeks at 25° C. […]
ROY microemulsions were prepared at ambient temperatures containing 10% by mass of Igepal CA720 in water and 30 μl/g or 60 μl/g of a ROY in toluene solution containing between 8% to 10% by mass of ROY. […] The crystals/crystal aggregates were extracted by filtration. […]

A short description of series [2]: Supersaturated solutions stabilised due to confinement in microemulsions; visual inspection or optical microscopy on standing. The format is physicochemical. The method, then:
Glycine microemulsions prepared at ambient temperature containing 4.2 g heptane, 2.8 g of a 1:1 mass ratio of Span 80 and Brij 30, and 0.25 g of glycine solution containing 3-3.5% by mass of glycine in water. The microemulsion was shaken by hand to ensure homogeneous mixing. To this was added a microemulsion containing 1.8 g heptane, 2.8 g of a 1:1 mass ratio of Span 80 and Brij 30, 1 g of methanol and 0.25 g of water, with subsequent shaking to ensure homogeneous mixing. The resulting supersaturation ratio (c/csat) was at 1.7-2.0, i.e. sufficient to cause fast crystallisation of metastable forms in an unconfined system.
Glycine microemulsions prepared at 50° C. containing hexadecane, 15% by mass of a 1:1 mass ratio of Span 20 and Span 80, 1% by mass of ethanol and 1% by mass of a glycine aqueous solution containing 2.5% by mass of glycine. The microemulsion was placed in a water bath at 50° C. and cooled to 26° C. over 24 hours. The resulting supersaturation ratio (c/csat) was at least 4, i.e. sufficient to cause rapid crystallisation in an unconfined system.
ROY microemulsions prepared at ambient temperatures containing 10% by mass of Igepal CA720 in water, 30 μl/g of a toluene solution containing 6% by mass of ROY and 12 μl/g of heptane. The resulting supersaturation ratio (c/csat) was at least 4, i.e. sufficient to cause crystallisation typically within a few hours in an unconfined system.
The mefenamic acid-in-DMF bulk solutions and microemulsions, were prepared at elevated temperature (˜50-60° C.). The microemulsion consisted of 3 g of AOT solution containing 3% by mass of AOT in heptane to which was added 20 μl of a mefenamic acid solution containing 70-75 mg of mefenamic acid per ml DMF. The microemulsion was cooled from 50 to 8° C. over 12 hours and then left at 8° C. The resulting supersaturation ratio (c/csat) was 3.9-4.1, i.e. sufficient to cause crystallisation of metastable form II typically within a few hours in an unconfined system.

For series [3] the following is noted: cited from earlier work.

`Cc1cc(C#N)c(Nc2ccccc2[N+](=O)[O-])s1` [ROY, 5-Methyl-2-[(2-nitrophenyl)amino]-3-thiophenecarbonitrile]: in series [1] (Example 5: Igepal CA720/water microemulsion, 8% to 10% ROY in toluene, dropwise heptane antisolvent, ambient), the “polymorph of crystals/crystal aggregates (FTIR)” value is “yellow prism polymorph of ROY”. For the same molecule, the “crystals by visual inspection or optical microscopy on standing” value (from here on “crystals … on standing”) in series [2] (6% ROY in toluene, Igepal CA720/water microemulsion with heptane, after 1 month) is reported as “No crystals were observed”. Besides, the “resulting supersaturation ratio (c/csat)” value in series [2] (6% by mass ROY in toluene, 30 μl/g, Igepal CA720/water microemulsion, 12 μl/g heptane) is given as “at least 4”. In addition, the “energy of yellow prism form below the orange needle and orange prism forms” value in series [3] (ambient temperatures) was approximately 0.0717 kcal/mol.
`NCC(=O)O` [glycine]: the “resulting supersaturation ratio (c/csat)” value in series [1] (Example 1: 4% by mass glycine solution in heptane/Span 80/Brij 30 microemulsion plus methanol antisolvent microemulsion) was 2.3; in series [2] (2.5% by mass glycine solution, hexadecane/Span 20/Span 80 microemulsion cooled 50 to 26° C. over 24 hours) it was “at least 4”; in series [2] (3-3.5% by mass glycine solution, heptane/Span 80/Brij 30 microemulsion plus methanol microemulsion) it was 1.7-2.0. Further, the “polymorph of extracted crystals (FTIR)” value in series [1] (Example 1: methanol antisolvent microemulsion added, c/csat 2.3, 3 weeks at 25° C.) is reported as “predominantly of γ-glycine; also recorded: stable γ-polymorph of glycine with virtually no α-polymorph”. Further, in series [1] (Example 2: hexadecane/Span 20/Span 80 microemulsion, 7% glycine solution, cooled 50 to 25° C. over 24 hours, after 7 days), the “polymorph of nanocrystals/nanocrystal aggregates (TEM)” value is reported as “predominantly of γ-glycine; also recorded: hexagonal γ-polymorph of glycine”. The “polymorph of crystals/crystal aggregates (FTIR)” value in series [1] (Example 3: heptane/Span 80/Brij 30 microemulsion, 4% glycine solution, vapour diffusion of methanol, ambient temperature) is listed as “predominantly the γ-polymorph of glycine with some α-polymorph”. In addition, the “crystals … on standing” value is listed as “No crystals were observed” in series [2] (2.5% glycine solution, hexadecane/Span 20/Span 80 microemulsion cooled to 26° C., after 1 month); “No crystals were observed” in series [2] (microemulsion from 3% by mass glycine in water, after 3 months); “only a few μm sized crystals apparent” in series [2] (microemulsion from 3.5% glycine in water, after 3 months). Further, the “temperatures at which the γ-phase is the most stable ambient pressure form” value in series [3] (ambient pressure) is less than 165 °C. In addition, the “energy of γ-phase below the α-phase” value in series [3] (ambient temperatures) was approximately 0.0478 kcal/mol. In addition, in series [3] (ambient temperatures), the “energy of γ-phase below the β-phase” value is approximately 0.143 kcal/mol. In addition, the “stability of γ-polymorph over α-polymorph in the bulk phases” value in series [3] (bulk phases) was approximately 0.048 kcal/mol.
Regarding `Cc1cccc(Nc2ccccc2C(=O)O)c1C` [mefenamic acid], the “resulting supersaturation ratio (c/csat)” value is 4.4-5.5 in series [1] (Example 4: 80-100 mg mefenamic acid per ml DMF in AOT/heptane microemulsion cooled from 50 to 8° C.) and 3.9-4.1 in series [2] (70-75 mg mefenamic acid per ml DMF in AOT/heptane microemulsion cooled from 50 to 8° C.). Further, the “polymorph of crystals (Raman)” value in series [1] (Example 4: DMF-in-heptane/AOT microemulsion cooled from 50 to 8° C. over 12 hours) is “predominantly of Form I; also recorded: characteristic Form I peaks”. Moreover, the “crystals … on standing” value in series [2] (70-75 mg/ml mefenamic acid in DMF, AOT/heptane microemulsion at 8° C., after 1 month) is recorded as “No crystals were observed”. Also, the “polymorph from crystallization in bulk DMF” value in series [3] (irrespective of rate of crystallization or crystallization temperature) was “only produces the metastable form II”.

B1: egg white albumin: Albumin is used to exemplify how protein crystallisation can be achieved (protein, UniProt P01012 2-386, looked up)
Ovalbumin: GSIGAASMEFCFDVFKELKVHHANENIFYCPIAIMSALAMVYLGAKDSTRTQINKVVRFDKLPGFGDSIEAQCGTSVNVHSSLRDILNQITKPNDVYSFSLASRLYAEERYPILPEYLQCVKELYRGGLEPINFQTAADQARELINSWVESQTNGIIRNVLQPSSVDSQTAMVLVNAIVFKGLWEKAFKDEDTQAMPFRVTEQESKPVQMMYQIGLFRVASMASEKMKILELPFASGTMSMLVLLPDEVSGLEQLESIINFEKLTEWTSSNVMEERKIKVYLPRMKMEEKYNLTSVLMAMGITDVFSSSANLSGISSAESLKISQAVHAAHAEINEAGREVVGSAEAGVDAASVSEEFRADHPFLFCIKHIATNAVLFFGRCVSP
B1: the “crystallisation observed by optical microscopy” value in series [1] (Example 6: isooctane/AOT microemulsion, 5 mg albumin per ml water, methanol microemulsion added, after 48 hours) is “crystals observed”.
